Results: ChEMBL document CHEMBL1201862, “PubChem BioAssay data set” (2004)
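Test compounds were applied to cells in 96-well plates for 48 hours at 5 doses. GI50 marks 50% less growth.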 The source made the active and inactive calls. Cut-off read from the data, not from the text of the source: active = GI50 up to about 1.1 µM and inactive = higher.

Experiments:
Test in all cases: NCI tumour cell line growth inhibition, 48 h
786-0 = system: 786-0
A498 = system: A498
A549 = system: A549
ACHN = system: ACHN
BT-549 = system: BT-549
CAKI-1 = system: CAKI-1
CCRF-CEM = system: CCRF-CEM
COLO 205 = system: COLO 205
DU-145 = system: DU-145
EKVX = system: EKVX
HCC 2998 = system: HCC 2998
HCT-116 = system: HCT-116
HCT-15 = system: HCT-15
HL-60 = system: HL-60
HOP-62 = system: HOP-62
HOP-92 = system: HOP-92
HT-29 = system: HT-29
Hs-578T = system: Hs-578T
IGROV-1 = system: IGROV-1
K562 = system: K562
KM12 = system: KM12
LOX IMVI = system: LOX IMVI
M14 = system: M14
MCF7 = system: MCF7
MDA-MB-231 = system: MDA-MB-231
MDA-MB-435 = system: MDA-MB-435
MDA-N = system: MDA-N
MOLT-4 = system: MOLT-4
Malme-3M = system: Malme-3M
NCI-H226 = system: NCI-H226
NCI-H23 = system: NCI-H23
NCI-H460 = system: NCI-H460
NCI-H522 = system: NCI-H522
NCI/ADR-RES = system: NCI/ADR-RES
OVCAR-3 = system: OVCAR-3
OVCAR-4 = system: OVCAR-4
OVCAR-5 = system: OVCAR-5
OVCAR-8 = system: OVCAR-8
PC-3 = system: PC-3
RPMI-8226 = system: RPMI-8226
RXF 393 = system: RXF 393
SF-268 = system: SF-268
SF-295 = system: SF-295
SF-539 = system: SF-539
SK-MEL-28 = system: SK-MEL-28
SK-MEL-2 = system: SK-MEL-2
SK-MEL-5 = system: SK-MEL-5
SK-OV-3 = system: SK-OV-3
SN12C = system: SN12C
SNB-19 = system: SNB-19
SNB-75 = system: SNB-75
SR = system: SR
SW-620 = system: SW-620
T47D = system: T47D
TK-10 = system: TK-10
U-251 = system: U-251
UACC-257 = system: UACC-257
UACC-62 = system: UACC-62
UO-31 = system: UO-31

O=C(c1c(F)c(F)c(F)c(F)c1F)N1CCN(C(=O)c2c(F)c(F)c(F)c(F)c2F)C1=S
GI50 (786-0): 13.2 µM (inactive)
GI50 (A498): 18.1 µM (inactive)
GI50 (A549): 14.4 µM (inactive)
GI50 (ACHN): 7.69 µM (inactive)
GI50 (BT-549): 13.6 µM (inactive)
GI50 (CAKI-1): 2.69 µM (inactive)
GI50 (CCRF-CEM): 2.79 µM (inactive)
GI50 (COLO 205): 7.01 µM (inactive)
GI50 (DU-145): 14 µM (inactive)
GI50 (EKVX): 13 µM (inactive)
GI50 (HCC 2998): 9.57 µM (inactive)
GI50 (HCT-116): 2.84 µM (inactive)
GI50 (HCT-15): 2.2 µM
GI50 (HL-60): 1.07 µM (active)
GI50 (HOP-62): 15.2 µM (inactive)
GI50 (HOP-92): 3.89 µM (inactive)
GI50 (HT-29): 5.48 µM (inactive)
GI50 (Hs-578T): 4.66 µM (inactive)
GI50 (IGROV-1): 4.4 µM (inactive)
GI50 (K562): 1.96 µM (inactive)
GI50 (KM12): 6 µM (inactive)
GI50 (LOX IMVI): 2.51 µM (inactive)
GI50 (M14): 1.56 µM (inactive)
GI50 (MCF7): 5.43 µM (inactive)
GI50 (MDA-MB-231): 6.75 µM (inactive)
GI50 (MDA-MB-435): 3.3 µM (inactive)
GI50 (MDA-N): 2.48 µM (inactive)
GI50 (MOLT-4): 2.77 µM (inactive)
GI50 (Malme-3M): 4.58 µM (inactive)
GI50 (NCI-H226): 15.4 µM (inactive)
GI50 (NCI-H23): 6.81 µM (inactive)
GI50 (NCI-H460): 10.7 µM (inactive)
GI50 (NCI-H522): 0.582 µM (active)
GI50 (NCI/ADR-RES): 7.33 µM (inactive)
GI50 (OVCAR-3): 5.08 µM (inactive)
GI50 (OVCAR-4): 5.22 µM (inactive)
GI50 (OVCAR-5): 15.6 µM (inactive)
GI50 (OVCAR-8): 5.05 µM (inactive)
GI50 (PC-3): 7.67 µM (inactive)
GI50 (RPMI-8226): 2.43 µM (inactive)
GI50 (RXF 393): 2.62 µM (inactive)
GI50 (SF-268): 11.3 µM (inactive)
GI50 (SF-295): 15.1 µM (inactive)
GI50 (SF-539): 10.8 µM (inactive)
GI50 (SK-MEL-28): 4.8 µM (inactive)
GI50 (SK-MEL-2): 2.11 µM (inactive)
GI50 (SK-MEL-5): 6.9 µM (inactive)
GI50 (SK-OV-3): 5.05 µM (inactive)
GI50 (SN12C): 8.11 µM (inactive)
GI50 (SNB-19): 16.4 µM (inactive)
GI50 (SNB-75): 11 µM (inactive)
GI50 (SR): 3.38 µM (inactive)
GI50 (SW-620): 1.84 µM (inactive)
GI50 (T47D): 6.46 µM (inactive)
GI50 (TK-10): 13.9 µM (inactive)
GI50 (U-251): 6.49 µM (inactive)
GI50 (UACC-257): 8.34 µM (inactive)
GI50 (UACC-62): 4.5 µM (inactive)
GI50 (UO-31): 5.55 µM (inactive)

N=C(N)/N=C(\N)Nc1ccc(C(=O)O)cc1
GI50 (786-0): > 100 µM (inactive)
GI50 (A498): > 100 µM (inactive)
GI50 (A549): > 100 µM (inactive)
GI50 (ACHN): > 100 µM (inactive)
GI50 (BT-549): > 100 µM (inactive)
GI50 (CAKI-1): > 100 µM (inactive)
GI50 (CCRF-CEM): > 100 µM (inactive)
GI50 (COLO 205): > 100 µM (inactive)
GI50 (DU-145): > 100 µM (inactive)
GI50 (EKVX): > 100 µM (inactive)
GI50 (HCC 2998): > 100 µM (inactive)
GI50 (HCT-116): > 100 µM (inactive)
GI50 (HCT-15): > 100 µM
GI50 (HL-60): > 100 µM (inactive)
GI50 (HOP-62): > 100 µM (inactive)
GI50 (HOP-92): > 100 µM (inactive)
GI50 (HT-29): > 100 µM (inactive)
GI50 (Hs-578T): > 100 µM (inactive)
GI50 (IGROV-1): > 100 µM (inactive)
GI50 (K562): > 100 µM (inactive)
GI50 (KM12): > 100 µM (inactive)
GI50 (LOX IMVI): > 100 µM (inactive)
GI50 (M14): > 100 µM (inactive)
GI50 (MCF7): > 100 µM (inactive)
GI50 (MDA-MB-231): > 100 µM (inactive)
GI50 (MDA-MB-435): > 100 µM (inactive)
GI50 (MDA-N): > 100 µM (inactive)
GI50 (MOLT-4): > 100 µM (inactive)
GI50 (Malme-3M): > 100 µM (inactive)
GI50 (NCI-H226): > 100 µM (inactive)
GI50 (NCI-H23): > 100 µM (inactive)
GI50 (NCI-H460): > 100 µM (inactive)
GI50 (NCI-H522): > 100 µM (inactive)
GI50 (NCI/ADR-RES): > 100 µM (inactive)
GI50 (OVCAR-3): > 100 µM (inactive)
GI50 (OVCAR-4): > 100 µM (inactive)
GI50 (OVCAR-5): > 100 µM (inactive)
GI50 (OVCAR-8): > 100 µM (inactive)
GI50 (PC-3): > 100 µM (inactive)
GI50 (RPMI-8226): > 100 µM (inactive)
GI50 (RXF 393): > 100 µM (inactive)
GI50 (SF-268): > 100 µM (inactive)
GI50 (SF-295): > 100 µM (inactive)
GI50 (SF-539): > 100 µM (inactive)
GI50 (SK-MEL-28): > 100 µM (inactive)
GI50 (SK-MEL-2): > 100 µM (inactive)
GI50 (SK-MEL-5): > 100 µM (inactive)
GI50 (SK-OV-3): > 100 µM (inactive)
GI50 (SN12C): 43.1 µM (inactive)
GI50 (SNB-19): > 100 µM (inactive)
GI50 (SNB-75): > 100 µM (inactive)
GI50 (SR): > 100 µM (inactive)
GI50 (SW-620): > 100 µM (inactive)
GI50 (T47D): > 100 µM (inactive)
GI50 (TK-10): > 100 µM (inactive)
GI50 (U-251): > 100 µM (inactive)
GI50 (UACC-257): > 100 µM (inactive)
GI50 (UACC-62): > 100 µM (inactive)
GI50 (UO-31): > 100 µM (inactive)
